Structures can show the parent of a compound that is named as a salt. Where two headings read alike, the source gives them in different places.
Assays:
substance P receptor = molecular target: T1, substance P receptor (Cavia porcellus, UniProt P30547); test: Test for binding to guinea-pig substance P receptor (crude lung membrane sample)
T1 construct: A preparation of a crude lung membrane sample was prepared; from tissue; host or cells: guinea-pig lung (crude membrane sample)
Procedure: A preparation of a crude lung membrane sample was prepared, and a test for binding of a test substance to the sample was performed according to the method described in EP0336230A2.
The binding effect of the test substance to a substance P receptor was calculated as an affinity (Ki) of the test substance for the substance P receptor from a 50% binding concentration (IC50) and an affinity (Kd) of [^3H]substance P for the substance P receptor.

human M3 receptor = molecular target: T2, human M3 receptor (Homo sapiens, UniProt P20309); test: Test for binding to human M3 receptor
T2 construct: expressed in transfected cells; host or cells: CHO cells
T2 sequence (P20309 whole entry): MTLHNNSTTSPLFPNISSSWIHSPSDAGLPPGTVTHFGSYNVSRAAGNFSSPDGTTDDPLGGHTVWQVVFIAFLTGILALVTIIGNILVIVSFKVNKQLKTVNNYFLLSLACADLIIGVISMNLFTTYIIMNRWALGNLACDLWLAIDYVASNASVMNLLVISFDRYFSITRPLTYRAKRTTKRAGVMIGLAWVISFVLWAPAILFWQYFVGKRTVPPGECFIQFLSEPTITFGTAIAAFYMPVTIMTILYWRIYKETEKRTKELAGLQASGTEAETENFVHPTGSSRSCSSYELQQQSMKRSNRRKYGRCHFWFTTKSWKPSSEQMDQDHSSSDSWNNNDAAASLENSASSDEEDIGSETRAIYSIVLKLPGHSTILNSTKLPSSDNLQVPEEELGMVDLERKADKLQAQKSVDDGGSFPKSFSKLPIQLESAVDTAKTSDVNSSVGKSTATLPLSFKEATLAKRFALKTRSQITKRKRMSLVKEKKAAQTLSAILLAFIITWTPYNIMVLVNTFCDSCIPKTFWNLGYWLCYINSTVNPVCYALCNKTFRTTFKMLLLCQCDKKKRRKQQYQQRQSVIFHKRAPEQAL
Outline: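 CHO-cell crude membranes expressing human M3 were incubated with [N-methyl-3H]-(−)-scopolamine methyl chloride in 50 mM Tris-HCl, 0.5 mM EDTA, pH 7.4, for 60 min at room temperature. Bound ligand was collected on PEI-pretreated glass-fibre filters and counted by liquid scintillation. Ki was calculated from IC50 and the radioligand Kd.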

neurokinin NK2 receptor = molecular target: T3, neurokinin NK2 receptor (Cavia porcellus, UniProt Q64077); test: Effect of suppressing neurokinin A-induced airway contraction (in vivo, intratracheal administration); set-up: species or system guinea pig; conditions: guinea pigs, intratracheal administration 60 minutes before 4 μg/kg i.v. NKA, AUC of increase in airway pressure over 10 minutes; for ED50: guinea pig, read-out: ID50 (the source's name)
T3 construct: Using healthy guinea pigs (body weight, 350 to 550 g; Hartley male guinea pigs); from tissue; host or cells: live anaesthetised Hartley male guinea pigs (airway, in vivo)
T3 sequence (Q64077 1-402): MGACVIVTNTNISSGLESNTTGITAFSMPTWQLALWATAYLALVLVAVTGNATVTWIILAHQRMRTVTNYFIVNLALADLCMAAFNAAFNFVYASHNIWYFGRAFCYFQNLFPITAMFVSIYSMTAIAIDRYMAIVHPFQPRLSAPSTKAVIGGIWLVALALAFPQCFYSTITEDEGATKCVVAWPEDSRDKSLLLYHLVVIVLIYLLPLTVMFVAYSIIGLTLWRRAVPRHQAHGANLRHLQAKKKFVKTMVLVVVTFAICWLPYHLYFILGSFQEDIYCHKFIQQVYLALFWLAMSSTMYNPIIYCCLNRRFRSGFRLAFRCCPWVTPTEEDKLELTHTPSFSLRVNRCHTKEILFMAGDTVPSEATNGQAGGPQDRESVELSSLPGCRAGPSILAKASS
Outline: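 Anesthetized, gallamine-paralysed, ventilated male Hartley guinea pigs received compound in 5% glucose intratracheally 60 minutes before 4 μg/kg NKA i.v. AUC of airway pressure increase over 10 minutes gave inhibition versus vehicle controls, expressed as ID50.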

[1] = crude guinea-pig lung membrane sample, [3H]substance P, Ki from IC50 and Kd, read-out: Ki
[2] = CHO cells expressing human M3 receptor, [N-methyl-3H]-(-)-Scopolamine methyl chloride 0.5 nM, Ki from IC50 and Kd, read-out: Ki

T1 sequence (P30547 whole entry): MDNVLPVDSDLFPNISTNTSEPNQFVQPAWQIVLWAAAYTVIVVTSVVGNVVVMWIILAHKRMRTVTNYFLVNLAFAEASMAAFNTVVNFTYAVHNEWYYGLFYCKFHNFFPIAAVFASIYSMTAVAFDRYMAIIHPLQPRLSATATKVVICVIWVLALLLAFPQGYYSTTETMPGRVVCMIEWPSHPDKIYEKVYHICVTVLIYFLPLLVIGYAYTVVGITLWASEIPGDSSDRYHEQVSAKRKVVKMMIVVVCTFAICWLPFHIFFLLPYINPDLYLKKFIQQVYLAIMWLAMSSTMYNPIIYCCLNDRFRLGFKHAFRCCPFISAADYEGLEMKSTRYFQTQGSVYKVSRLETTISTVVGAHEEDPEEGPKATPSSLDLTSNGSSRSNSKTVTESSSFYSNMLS

Structure (SMILES) | Ki (substance P receptor; [1]) [nM] | Ki (human M3 receptor; [2]) [nM] | ED50 (neurokinin NK2 receptor) [mg/kg] | Ki (human M3 receptor) [nM] | ID50 (neurokinin NK2 receptor) [mg/kg] | Ki (substance P receptor) [nM]
CN(CCN1CCC(OC(=O)Nc2ccccc2-c2ccccc2)CC1)C(=O)CCCCCNCc1ccc(C(=O)N(C)CCCN(C)C(=O)CO[C@H]2Cc3ccccc3C23CCN(CC[C@@]2(c4ccc(F)cc4)CN(C(=O)c4cc(C(F)(F)F)cc(C(F)(F)F)c4)CO2)CC3)s1 [Example 1, 1-{2-[{6-[({5-[{3-[({[(2S)-1′-{2-[(5R)-3-[3,5-Bis(trifluoromethyl)benzoyl]-5-(4-fluorophenyl)-1,3-oxazolidin-5-yl]ethyl}-2,3-dihydrospiro[indene-1,4′-piperidin]-2-yl]oxy}acetyl)(methyl)amino]propyl}(methyl)carbamoyl]-2-thienyl}methyl)amino]hexanoyl}(methyl)amino]ethyl}piperidin-4-yl biphenyl-2-ylcarbamate] | 1.5 | 1.4 | 0.0049 |  |  | 
CN(CCN1CCC(OC(=O)Nc2ccccc2-c2ccccc2)CC1)C(=O)CCCCCN(C)c1ccc(C(=O)N(C)CCCN(C)C(=O)CO[C@H]2Cc3ccccc3C23CCN(CC[C@@]2(c4ccc(F)cc4)CN(C(=O)c4cc(C(F)(F)F)cc(C(F)(F)F)c4)CO2)CC3)cc1 [Example 76, 1-{2-[{6-[{4-[{3-[({[(2S)-1′-{2-[(5R)-3-[3,5-Bis(trifluoromethyl)benzoyl]-5-(4-fluorophenyl)-1,3-oxazolidin-5-yl]ethyl}-2,3-dihydrospiro[indene-1,4′-piperidin]-2-yl]oxy}acetyl)(methyl)amino]propyl}(methyl)carbamoyl]phenyl}(methyl)amino]hexanoyl}(methyl)amino]ethyl}piperidin-4-yl biphenyl-2-ylcarbamate] | 2.7 | 3.4 | 0.0176 |  |  | 
CN(CCN1CCC(OC(=O)Nc2ccccc2-c2ccccc2)CC1)C(=O)CCCCN(C)c1ccc(C(=O)N(C)CCCN(C)C(=O)CO[C@H]2Cc3ccccc3C23CCN(CC[C@@]2(c4ccc(F)cc4)CN(C(=O)c4cc(C(F)(F)F)cc(C(F)(F)F)c4)CO2)CC3)cc1 [Example 38, 1-{2-[{5-[{4-[{3-[({[(2S)-1′-{2-[(5R)-3-[3,5-Bis(trifluoromethyl)benzoyl]-5-(4-fluorophenyl)-1,3-oxazolidin-5-yl]ethyl}-2,3-dihydrospiro[indene-1,4′-piperidin]-2-yl]oxy}acetyl)(methy)amino]propyl}(methyl)carbamoyl]phenyl}(methyl)amino]pentanoyl}(methyl)amino]ethyl}piperidin-4-yl biphenyl-2-ylcarbamate trihydrochloride] | 1.5 | 1.8 | 0.0253 |  |  | 
CN(CCN1CCC(OC(=O)Nc2ccccc2-c2ccccc2)CC1)C(=O)CCCN(C)c1ccc(C(=O)N(C)CCCN(C)C(=O)CO[C@H]2Cc3ccccc3C23CCN(CC[C@@]2(c4ccc(F)cc4)CN(C(=O)c4cc(C(F)(F)F)cc(C(F)(F)F)c4)CO2)CC3)cc1 [Example 36, 1-{2-[{4-[{4-[{3-[({[(2S)-1′-{2-[(5R)-3-[3,5-Bis(trifluoromethyl)benzoyl]-5-(4-fluorophenyl)-1,3-oxazolidin-5-yl]ethyl}-2,3-dihydrospiro[indene-1,4′-piperidin]-2-yl]oxy}acetyl)(methyl)amino]propyl}(methyl)carbamoyl]phenyl}(methyl)amino]butanoyl}(methyl)amino]ethyl}piperidin-4-yl biphenyl-2-ylcarbamate trihydrochloride] | 1.4 |  | 0.0168 | 1.8 |  | 
CN(CCN1CCC(OC(=O)Nc2ccccc2-c2ccccc2)CC1)C(=O)CCCCCNc1ncc(C(=O)N(C)CCCN(C)C(=O)CO[C@H]2Cc3ccccc3C23CCN(CC[C@@]2(c4ccc(F)cc4)CN(C(=O)c4cc(C(F)(F)F)cc(C(F)(F)F)c4)CO2)CC3)cn1 [Example 14, 1-(2-{[6-({5-[{3-[({[(2S)-1′-{2-[(5R)-3-[3,5-Bis(trifluoromethyl)benzoyl]-5-(4-fluorophenyl)-1,3-oxazolidin-5-yl]ethyl}-2,3-dihydrospiro[indene-1,4′-piperidin]-2-yl]oxy}acetyl)(methyl)amino]propyl}(methyl)carbamoyl]pyrimidin-2-yl}amino)hexanoyl](methyl)amino}ethyl)piperidin-4-yl biphenyl-2-ylcarbamate trihydrochloride] | 1.9 |  | 0.0284 | 0.93 |  | 
CN(CCN1CCC(OC(=O)Nc2ccccc2-c2ccccc2)CC1)C(=O)CCCCCNc1ccc(C(=O)N(C)CCCN(C)C(=O)CO[C@H]2Cc3ccccc3C23CCN(CC[C@@]2(c4ccc(F)cc4)CN(C(=O)c4cc(C(F)(F)F)cc(C(F)(F)F)c4)CO2)CC3)nc1 [Example 9, 1-(2-{[6-({6-[{3-[({[(2S)-1′-{2-[(5R)-3-[3,5-Bis(trifluoromethyl)benzoyl]-5-(4-fluorophenyl)-1,3-oxazolidin-5-yl]ethyl}-2,3-dihydrospiro[indene-1,4′-piperidin]-2-yl]oxy}acetyl)(methyl)amino]propyl}(methyl)carbamoyl]pyridin-3-yl}amino)hexanoyl](methyl)amino}ethyl)piperidin-4-yl biphenyl-2-ylcarbamate] | 2.1 | 1.3 | 0.0374 |  |  | 
CN(CCN1CCC(OC(=O)Nc2ccccc2-c2ccccc2)CC1)C(=O)CCCCCNc1nc2ccc(C(=O)N(C)CCCN(C)C(=O)CO[C@H]3Cc4ccccc4C34CCN(CC[C@@]3(c5ccc(F)cc5)CN(C(=O)c5cc(C(F)(F)F)cc(C(F)(F)F)c5)CO3)CC4)cc2s1 [Example 93, 1-(2-{[6-({6-[{3-[({[(2S)-1′-{2-[(5R)-3-[3,5-Bis(trifluoromethyl)benzoyl]-5-(4-fluorophenyl)-1,3-oxazolidin-5-yl]ethyl}-2,3-dihydrospiro[indene-1,4′-piperidin]-2-yl]oxy}acetyl)(methy)amino]propyl}(methyl)carbamoyl]-1,3-benzothiazol-2-yl}amino)hexanoyl](methyl)amino}ethyl)piperidin-4-yl biphenyl-2-ylcarbamate] | 1 | 0.6 |  |  | 0.0437 | 
CN(CCN1CCC(OC(=O)Nc2ccccc2-c2ccccc2)CC1)C(=O)CCOCCNc1ccc(C(=O)N(C)CCCN(C)C(=O)CO[C@H]2Cc3ccccc3C23CCN(CC[C@@]2(c4ccc(F)cc4)CN(C(=O)c4cc(C(F)(F)F)cc(C(F)(F)F)c4)CO2)CC3)cc1 [Example 29, 1-{2-[{3-[2-({4-[{3-[({[(2S)-1′-{2-[(5R)-3-[3,5-Bis(trifluoromethyl)benzoyl]-5-(4-fluorophenyl)-1,3-oxazolidin-5-yl]ethyl}-2,3-dihydrospiro[indene-1,4′-piperidin]-2-yl]oxy}acetyl)(methy)amino]propyl}(methyl)carbamoyl]phenyl}amino)ethoxy]propanoyl}(methyl)amino]ethyl}piperidin-4-yl biphenyl-2-ylcarbamate trihydrochloride] | 1.4 | 1.7 | 0.0438 |  |  | 
CN(CCN1CCC(OC(=O)Nc2ccccc2-c2ccccc2)CC1)C(=O)CCN(C)c1ccc(C(=O)N(C)CCCN(C)C(=O)CO[C@H]2Cc3ccccc3C23CCN(CC[C@@]2(c4ccc(F)cc4)CN(C(=O)c4cc(C(F)(F)F)cc(C(F)(F)F)c4)CO2)CC3)cc1 [Example 95, 1-{2-[(N-{4-[{3-[({[(2S)-1′-{2-[(5R)-3-[3,5-Bis(trifluoromethyl)benzoyl]-5-(4-fluorophenyl)-1,3-oxazolidin-5-yl]ethyl}-2,3-dihydrospiro[indene-1,4′-piperidin]-2-yl]oxy}acetyl)(methy)amino]propyl}(methyl)carbamoyl]phenyl}-N-methyl-β-alanyl)(methyl)amino]ethyl}piperidin-4-yl biphenyl-2-ylcarbamate] |  | 2.1 | 0.039 |  |  | 1.4
